In brackets after ≈: the same amount, converted by molar mass. Activity calls are given as the source filed them. No cut-off for these calls is given here.
Tests used:
[1] = biological target: Heat shock protein HSP 90-alpha (Homo sapiens, UniProt P07900)
[2] = Half life in mouse liver microsomes; type: ADME, Microsome
CYP2D6 = CYP2D6 (Homo sapiens, UniProt P10635); experiment: Inhibition of CYP2D6 at 3 uM; type: ADME
CYP2C9 = CYP2C9 (Homo sapiens, UniProt P11712); experiment: Inhibition of CYP2C9 at 3 uM; type: ADME
Chain of CYP2C9 (P11712 whole entry): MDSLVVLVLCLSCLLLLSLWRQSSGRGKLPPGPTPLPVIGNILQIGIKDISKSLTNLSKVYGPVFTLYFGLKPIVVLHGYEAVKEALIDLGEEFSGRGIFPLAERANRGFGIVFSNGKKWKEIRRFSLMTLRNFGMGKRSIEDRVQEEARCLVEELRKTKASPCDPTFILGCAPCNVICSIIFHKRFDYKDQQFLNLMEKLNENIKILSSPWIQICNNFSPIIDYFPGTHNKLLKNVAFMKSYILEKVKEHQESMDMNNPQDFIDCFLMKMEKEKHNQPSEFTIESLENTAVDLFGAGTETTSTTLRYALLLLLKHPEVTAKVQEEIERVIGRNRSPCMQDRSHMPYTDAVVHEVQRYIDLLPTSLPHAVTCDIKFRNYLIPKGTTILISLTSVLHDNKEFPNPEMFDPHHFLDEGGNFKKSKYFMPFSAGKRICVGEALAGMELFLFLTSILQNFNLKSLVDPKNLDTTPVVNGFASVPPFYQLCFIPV

[3] = Aqueous solubility of the compound; type: physicochemical; conditions: buffer
[4] = Half life in rat liver microsomes; type: ADME, Microsome
CYP3A4 = CYP3A4 (Homo sapiens, UniProt P08684); experiment: Inhibition of CYP3A4 at 3 uM; type: ADME
Chain of CYP3A4 (P08684 whole entry): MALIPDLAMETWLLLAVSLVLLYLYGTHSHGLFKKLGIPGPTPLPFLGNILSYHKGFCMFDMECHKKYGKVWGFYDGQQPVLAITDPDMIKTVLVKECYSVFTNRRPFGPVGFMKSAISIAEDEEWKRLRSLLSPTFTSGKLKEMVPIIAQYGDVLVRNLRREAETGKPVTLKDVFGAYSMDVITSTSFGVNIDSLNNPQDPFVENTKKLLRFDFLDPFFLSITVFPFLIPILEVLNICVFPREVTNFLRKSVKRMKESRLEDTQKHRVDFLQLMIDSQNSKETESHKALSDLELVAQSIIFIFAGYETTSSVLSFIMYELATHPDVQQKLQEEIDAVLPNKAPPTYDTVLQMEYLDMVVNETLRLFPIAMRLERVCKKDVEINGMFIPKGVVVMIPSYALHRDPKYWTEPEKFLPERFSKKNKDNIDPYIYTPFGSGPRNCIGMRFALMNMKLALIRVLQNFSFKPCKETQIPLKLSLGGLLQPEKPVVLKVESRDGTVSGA

[5] = Half life in human liver microsomes; type: ADME, Microsome
[6] = biological target: Voltage-gated inwardly rectifying potassium channel KCNH2 (Homo sapiens, UniProt Q12809)
Chain of Voltage-gated inwardly rectifying potassium channel KCNH2 (Q12809 whole entry): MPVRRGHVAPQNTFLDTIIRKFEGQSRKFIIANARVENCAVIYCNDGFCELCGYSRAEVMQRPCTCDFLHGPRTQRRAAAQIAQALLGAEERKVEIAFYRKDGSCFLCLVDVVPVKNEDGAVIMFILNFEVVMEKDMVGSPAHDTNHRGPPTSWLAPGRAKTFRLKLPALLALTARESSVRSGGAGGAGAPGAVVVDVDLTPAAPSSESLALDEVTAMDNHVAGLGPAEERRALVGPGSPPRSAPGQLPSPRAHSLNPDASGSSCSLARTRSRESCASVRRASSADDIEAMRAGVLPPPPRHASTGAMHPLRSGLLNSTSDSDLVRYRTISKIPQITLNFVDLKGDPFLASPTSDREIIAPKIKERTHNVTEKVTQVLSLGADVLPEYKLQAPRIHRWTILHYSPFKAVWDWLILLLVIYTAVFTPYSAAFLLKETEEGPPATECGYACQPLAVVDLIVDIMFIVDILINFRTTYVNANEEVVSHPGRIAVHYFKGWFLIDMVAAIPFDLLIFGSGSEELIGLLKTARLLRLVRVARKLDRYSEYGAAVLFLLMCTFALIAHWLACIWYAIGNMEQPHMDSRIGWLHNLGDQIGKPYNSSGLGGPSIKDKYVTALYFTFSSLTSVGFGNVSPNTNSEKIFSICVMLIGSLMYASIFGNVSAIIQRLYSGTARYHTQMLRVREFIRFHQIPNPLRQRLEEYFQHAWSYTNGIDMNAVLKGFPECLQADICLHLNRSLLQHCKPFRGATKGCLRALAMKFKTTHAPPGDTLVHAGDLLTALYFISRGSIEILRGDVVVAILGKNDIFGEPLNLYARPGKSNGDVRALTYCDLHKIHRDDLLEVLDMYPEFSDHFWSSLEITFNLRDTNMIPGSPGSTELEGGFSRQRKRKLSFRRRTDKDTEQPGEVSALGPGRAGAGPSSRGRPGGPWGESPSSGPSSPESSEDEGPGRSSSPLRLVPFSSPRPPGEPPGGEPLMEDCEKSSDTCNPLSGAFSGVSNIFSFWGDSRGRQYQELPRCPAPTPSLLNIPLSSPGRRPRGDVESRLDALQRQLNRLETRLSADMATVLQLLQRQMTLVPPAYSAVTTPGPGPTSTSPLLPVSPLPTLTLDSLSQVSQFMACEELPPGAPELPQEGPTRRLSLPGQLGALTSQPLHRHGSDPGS

[7] = Bioavailability in CD-1 mouse at 10 mg/kg, po; conditions: in vivo
[8] = AUC (0 to infinity) in CD-1 mouse at 2 mg/kg, iv; type: ADME, organism-based; design: time infinity, dose 2 mg/kg, route intravenous; conditions: plasma
[9] = biological target: Proto-oncogene tyrosine-protein kinase Src (Homo sapiens, UniProt P12931); experiment: Inhibition of SRC-related membrane-associated tyrosine kinase
Chain of Proto-oncogene tyrosine-protein kinase Src (P12931 2-536 limits assumed): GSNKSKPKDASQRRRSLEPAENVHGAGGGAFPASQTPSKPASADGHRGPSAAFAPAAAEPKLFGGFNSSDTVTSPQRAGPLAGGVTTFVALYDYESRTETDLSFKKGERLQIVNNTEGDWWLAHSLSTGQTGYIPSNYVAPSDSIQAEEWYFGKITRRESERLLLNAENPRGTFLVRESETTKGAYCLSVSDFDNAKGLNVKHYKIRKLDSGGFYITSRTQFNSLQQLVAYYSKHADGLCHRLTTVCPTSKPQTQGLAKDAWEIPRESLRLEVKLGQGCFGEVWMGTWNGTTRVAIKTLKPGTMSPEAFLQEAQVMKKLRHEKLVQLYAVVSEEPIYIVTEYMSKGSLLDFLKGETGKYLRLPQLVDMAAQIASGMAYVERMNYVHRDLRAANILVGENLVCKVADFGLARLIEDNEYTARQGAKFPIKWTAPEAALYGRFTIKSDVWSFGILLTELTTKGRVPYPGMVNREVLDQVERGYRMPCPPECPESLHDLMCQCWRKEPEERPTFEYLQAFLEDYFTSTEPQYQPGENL

[10] = Half life in CD-1 mouse at 10 mg/kg, po; type: ADME, organism-based; design: dose 10 mg/kg, route oral; conditions: in vivo
U-87MG ATCC [11] = conditions: Homo sapiens
[12] = AUC (0 to infinity) in CD-1 mouse at 10 mg/kg, po; type: ADME, organism-based; design: time infinity, dose 10 mg/kg, route oral; conditions: plasma
[13] = biological target: Tyrosine-protein kinase Fyn (Homo sapiens, UniProt P06241); experiment: Inhibition of FYN
Chain of Tyrosine-protein kinase Fyn (P06241 whole entry): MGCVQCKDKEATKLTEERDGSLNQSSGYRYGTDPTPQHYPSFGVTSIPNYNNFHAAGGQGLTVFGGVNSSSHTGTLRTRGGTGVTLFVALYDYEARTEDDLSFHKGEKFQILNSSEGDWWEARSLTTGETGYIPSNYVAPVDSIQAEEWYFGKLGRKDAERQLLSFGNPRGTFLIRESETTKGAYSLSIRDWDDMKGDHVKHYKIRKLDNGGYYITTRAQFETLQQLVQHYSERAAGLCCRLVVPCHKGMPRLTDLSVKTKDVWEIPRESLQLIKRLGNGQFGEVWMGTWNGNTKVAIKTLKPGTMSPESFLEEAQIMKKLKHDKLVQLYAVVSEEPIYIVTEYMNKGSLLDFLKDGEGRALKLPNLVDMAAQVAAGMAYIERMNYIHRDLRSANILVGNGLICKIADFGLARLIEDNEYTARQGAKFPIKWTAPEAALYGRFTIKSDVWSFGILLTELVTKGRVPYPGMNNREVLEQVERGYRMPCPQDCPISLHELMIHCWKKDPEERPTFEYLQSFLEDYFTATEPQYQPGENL

U-87MG ATCC [14] = conditions: Homo sapiens; remark: listed apart in the source
[15] = Plasma clearance in CD-1 mouse at 2 mg/kg, iv; type: ADME, organism-based; design: dose 2 mg/kg, route intravenous
[16] = Half life in CD-1 mouse at 2 mg/kg, iv; type: ADME, organism-based; design: dose 2 mg/kg, route intravenous; conditions: in vivo
[17] = Volume of distribution at steady state in CD-1 mouse at 2 mg/kg, iv; type: ADME, organism-based; design: dose 2 mg/kg, route intravenous; conditions: in vivo, read-out: Vdss
U-87MG ATCC [18] = conditions: Homo sapiens; remark: listed apart in the source
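Throughout, for EC50: antiproliferative effect on human HCT116 cells, read out by luminescence.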

Chain of CYP2D6 (P10635 whole entry): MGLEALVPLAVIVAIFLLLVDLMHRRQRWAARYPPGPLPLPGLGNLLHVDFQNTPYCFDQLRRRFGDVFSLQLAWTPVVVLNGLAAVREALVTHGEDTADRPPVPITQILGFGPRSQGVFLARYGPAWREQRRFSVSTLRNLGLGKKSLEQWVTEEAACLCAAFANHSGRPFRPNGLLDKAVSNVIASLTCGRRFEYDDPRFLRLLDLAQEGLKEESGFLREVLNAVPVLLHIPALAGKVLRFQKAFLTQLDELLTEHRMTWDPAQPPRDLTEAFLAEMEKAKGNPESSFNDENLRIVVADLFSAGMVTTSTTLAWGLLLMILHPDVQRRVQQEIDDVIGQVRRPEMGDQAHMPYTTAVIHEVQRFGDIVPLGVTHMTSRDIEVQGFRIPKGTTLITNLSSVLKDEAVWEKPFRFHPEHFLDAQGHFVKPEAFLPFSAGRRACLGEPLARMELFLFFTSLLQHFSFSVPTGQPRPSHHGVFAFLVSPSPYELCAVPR

SMILES | EC50 (HCT-116) | IC50 [1] | half-life [2] | inhibition at 3 µM (CYP2D6) | inhibition at 3 µM (CYP2C9) | solubility ([3]; read-out: solubility) | half-life [4] | inhibition at 3 µM (CYP3A4) | half-life [5] | IC50 [6] | further results
Cc1c2c(n3c1CCCN1CC[C@@H](CNc4cc-3ccc4C(N)=O)C1)CC(C)(C)CC2=O | 2970 nM | > 5000 nM | – | – | – | – | – | – | – | – | –
Cc1c2c(n3c1CCCN1C[C@H](O)C[C@@H]1CNc1cc-3ccc1C(N)=O)CC(C)(C)CC2=O | 192 nM | 153 nM | 7 min | 33% | 9% | 67 µg/mL (≈ 149 µM) | 10 min | 64% | 3 min | – | –
Cc1c2c(n3c1CCCN1CC[C@H](CNc4cc-3ccc4C(N)=O)C1)CC(C)(C)CC2=O | 100 nM | 201 nM | > 30 min | 0% | 2% | > 100 µg/mL | 21 min | 53% | 23 min | 440 nM | –
Cc1c2c(n3c1CCC(=O)N1CCC[C@@H]1CNc1cc-3ccc1C(N)=O)CC(C)(C)CC2=O | 310 nM | 188 nM | – | – | – | – | – | – | – | – | –
Cc1c2c(n3c1CCCNC(=O)[C@H](C)Nc1cc-3ccc1C(N)=O)CC(C)(C)CC2=O | 56 nM | 82 nM | > 30 min | 5% | 23% | > 100 µg/mL | > 30 min | 6% | 4 min | – | –
CC(=O)N1CCN2CCCc3c(C)c4c(n3-c3ccc(C(N)=O)c(c3)NC[C@H]2C1)CC(C)(C)CC4=O | 140 nM | 106 nM | 5 min | 4% | 15% | > 100 µg/mL | 3 min | 34% | 14 min | 24400 nM | –
Cc1c2c(n3c1CCCN1C[C@@H](N4CCCC4)C[C@@H]1CNc1cc-3ccc1C(N)=O)CC(C)(C)CC2=O | 2430 nM | 496 nM | – | 69% | 3% | 71 µg/mL (≈ 141 µM) | 5 min | 34% | – | – | –
Cc1c2c(n3c1CCCN1CCCC[C@@H]1CNc1cc-3ccc1C(N)=O)CC(C)(C)CC2=O | 32 nM | 126 nM | 27 min | 16% | 0% | 52 µg/mL (≈ 116 µM) | 3 min | 77% | 8 min | – | –
Cc1c2c(n3c1CCN1CCC[C@@H]1CNc1cc-3ccc1C(N)=O)CC(C)(C)CC2=O | 460 nM | 883 nM | – | 6% | 0% | 6 µg/mL (≈ 14.3 µM) | 6 min | 32% | – | – | –
Cc1c2c(n3c1CCCN1CCC[C@@H]1CNc1cc-3ccc1C(N)=O)CC(C)(C)CC2=O | – | – | – | – | 6% | 2320 µg/mL (≈ 5350 µM) | 6 min | – | – | 2600 nM | bioavailability [7]: 74%; AUC(0-inf) [8]: 1740 ng·h/mL; IC50 [9]: > 50000 nM; half-life [10]: 312 min; inhibition (U-87MG ATCC [11]): Active; AUC(0-inf) [12]: 6460 ng·h/mL; IC50 [13]: 22000 nM; inhibition (U-87MG ATCC [14]): Active; clearance [15]: 19 mL/min/kg; half-life [16]: 276 min; Vd [17]: 5.3 L/kg; inhibition (U-87MG ATCC [18]): Active
Cc1c2c(n3c1CCCN1CCNC[C@H]1CNc1cc-3ccc1C(N)=O)CC(C)(C)CC2=O | 1850 nM | 3320 nM | > 30 min | 3% | 12% | > 100 µg/mL | > 30 min | 1% | > 30 min | – | –
Cc1c2c(n3c1CCCN1CCC[C@H]1CNc1cc-3ccc1C(N)=O)CC(C)(C)CC2=O | 1140 nM | – | – | – | – | – | – | – | – | – | solubility [3]: 66 µg/mL (≈ 152 µM)
Cc1c2c(n3c1CCCCN1CCC[C@@H]1CNc1cc-3ccc1C(N)=O)CC(C)(C)CC2=O | 232 nM | 301 nM | 11 min | 2% | 0% | > 100 µg/mL | 8 min | 67% | 5 min | – | –
Cc1c2c(n3c1CCCN1CCOC[C@@H]1CNc1cc-3ccc1C(N)=O)CC(C)(C)CC2=O | 34 nM | 96 nM | 7 min | 0% | 39% | 29 µg/mL (≈ 64.4 µM) | 3 min | 71% | 3 min | 12500 nM | –
Cc1c2c(n3c1CCCN1CCCC[C@@H]1[C@H](C)Nc1cc-3ccc1C(N)=O)CC(C)(C)CC2=O | 67 nM | 170 nM | 6 min | 4% | 4% | 35 µg/mL (≈ 75.7 µM) | 7 min | 55% | 3 min | 1500 nM | –
CC(=O)N[C@H]1C[C@@H]2CNc3cc(ccc3C(N)=O)-n3c(c(C)c4c3CC(C)(C)CC4=O)CCCN2C1 | 2560 nM | 634 nM | – | – | – | – | – | – | – | – | –
Cc1c2c(n3c1CCCN1CC[C@@H](C1)Nc1cc-3ccc1C(N)=O)CC(C)(C)CC2=O | 671 nM | 982 nM | – | 23% | 25% | 49 µg/mL (≈ 117 µM) | 5 min | 70% | – | – | –
Cc1c2c(n3c1CCCN1CCC[C@@H](C1)Nc1cc-3ccc1C(N)=O)CC(C)(C)CC2=O | 39 nM | 78 nM | 3 min | 12% | 74% | 16 µg/mL (≈ 36.8 µM) | 8 min | 76% | 2 min | 3400 nM | –
Cc1c2c(n3c1CCCN1C[C@@H](F)C[C@@H]1CNc1cc-3ccc1C(N)=O)CC(C)(C)CC2=O | 60 nM | 61 nM | 5 min | 9% | 46% | 3 µg/mL (≈ 6.63 µM) | 2 min | 77% | 4 min | 16400 nM | –

From ChEMBL document CHEMBL1777689 (Bioorg Med Chem Lett, 2011)
